Test results from patent US12122821B2, “Regulation of glucose metabolism using anti-CGRP antibodies” (H. LUNDBECK A/S, priority 2013, dated 2024).

Columns and labels:
Assay type in all cases: in vivo
[1] = system: Zucker diabetic fatty (ZDF) rat; experiment: Body weight and food intake in ZDF rats (Example 3); settings: pioglitazone 10 mg/kg/day, vs vehicle ZDF
Protocol: For the groups treated with AB14, the antibody was administered once weekly via the caudal vein (i.v., 5 mL/kg) on days 1, 8, 15, and 22 at two different doses 20 mg/kg/week (groups 3 and 7) or 60 mg/kg/week (groups 4 and 8). All other groups were treated once weekly with vehicle 1 (i.v., 5 mL/kg). The intravenous treatments were performed in the morning on day 1, 8, 15, and 22 while under isoflurane anaesthesia. The volume of administration was individually adapted according to the most recent body weight. […] All other groups were treated daily with vehicle 2 (p.o., 5 mL/kg) for 28 days. The most recent body weight was used to calculate the average volume of administration in each group. Body weight was measured twice a week during the 4 weeks of treatment. Food consumption was measured just before the screening procedure and then twice weekly over 24 h during the first three weeks of treatment. Food consumption was measured once weekly during the week of OGTT (week 4).

[2] = system: Zucker diabetic fatty (ZDF) rat; experiment: Oral glucose tolerance test on day 26 in ZDF rats (Example 3)
Protocol: The oral glucose tolerance test (OGTT) was performed as follows. On day 25, rats were fasted at ˜6:00 pm and an oral glucose tolerance test was performed the day after (on day 26). At ˜8:00 am (T-60) a blood collection (110 μL, EDTA) was performed for biochemical parameters measurements. One hour after (˜09:00 am), an oral glucose bolus (1.5 g/kg) was administered (T0). Blood glucose was measured (glucometer or colorimetric method in case of high glycaemia) on T-60, T0, T15, T30, T60, T90, T120, and T180 minutes. Area under the curve (AUC) was calculated based on the blood glucose values measured at T0. Plasma insulin and C-peptide were measured (ELISA method) on T-60, T15 (·40 μL of blood, EDTA), and T30 minutes (·40 μL of blood, EDTA).

[3] = system: Zucker diabetic fatty (ZDF) rat; experiment: Fasting blood glucose, plasma insulin, C-peptide and HOMA-IR in ZDF rats (Example 3); settings: vs vehicle ZDF
Protocol: (§1) For the groups treated with AB14, the antibody was administered once weekly via the caudal vein (i.v., 5 mL/kg) on days 1, 8, 15, and 22 at two different doses 20 mg/kg/week (groups 3 and 7) or 60 mg/kg/week (groups 4 and 8). All other groups were treated once weekly with vehicle 1 (i.v., 5 mL/kg). The intravenous treatments were performed in the morning on day 1, 8, 15, and 22 while under isoflurane anaesthesia. The volume of administration was individually adapted according to the most recent body weight.
(§2) All other groups were treated daily with vehicle 2 (p.o., 5 mL/kg) for 28 days. The most recent body weight was used to calculate the average volume of administration in each group.
(§3) A fasting (6 hours on day 0 from 8:00 am to 02:00 pm, and overnight on day 12, 19 and 26 from ˜6:00 pm to ˜8:00 am) was performed before each blood collection. Blood was collected at ˜2:00 pm, from the tip of the tail, on day 0 (before screening, 150 μL, potassium EDTA), and at ˜8:00 am prior to dosing on days 12 (110 μL, potassium EDTA), 19 (150 μL, potassium EDTA) and 26, (110 μL, potassium EDTA).
(§4) Fasting blood glucose (glucometers) was measured on days 0, 12, 19, and 26. Fasting plasma insulin, peptide-C (ELISA method), free fatty acids, triglycerides, total cholesterol (colorimetric method), and HDL-cholesterol (phosphotungstate precipitation, colorimetric method) were measured on day 0, and prior to dosing on days 12, 19, and day 26. Non HDL-cholesterol was calculated as total cholesterol—HDL-cholesterol. Fructosamine was measured on days 0, 19 and 28. HbA1c (DCA 2000) was measured on days 0 and 28.

[4] = system: Zucker diabetic fatty (ZDF) rat; experiment: Plasma triglycerides, free fatty acids and cholesterol in ZDF rats (Example 3); settings: for increase of plasma HDL-cholesterol / decrease of plasma non HDL-cholesterol levels: vs vehicle; for lowering of plasma free fatty acids levels: vs vehicle ZDF
Protocol: as §1, §2, §3, §4

[5] = system: Zucker diabetic fatty (ZDF) rat; experiment: Fructosamine and HbA1c in ZDF rats (Example 3); settings: vs vehicle ZDF
Protocol: as §1, §2, §4

[6] = OGTT day 26, pioglitazone 10 mg/kg/day, vs vehicle ZDF
[7] = day 12, pioglitazone 10 mg/kg/day
[8] = day 19, pioglitazone 10 mg/kg/day
[9] = day 26, pioglitazone 10 mg/kg/day
[10] = days 12, 19 and 26, pioglitazone 10 mg/kg/day

Structure (SMILES): CCc1ccc(CCOc2ccc(CC3SC(=O)NC3=O)cc2)nc1 (centres unmarked) [pioglitazone]
- body weight gain at the end of the treatment [1]: 3 fold
- increase of cumulative food intake ([1]; NS): 14%
- increase of C-peptide secretion (relative to T-60) at T15 [2, 6]: 21%
- increase of C-peptide secretion (relative to T-60) at T30 [2, 6]: 22%
- increase of insulin secretion (relative to T-60) at T30 [2, 6]: 5%
- increase of insulin secretion (relative to T-60) at T15 ([2]; OGTT day 26, vs vehicle ZDF (pioglitazone 10 mg/kg/day)): 20%
- reduction in blood glucose AUC (OGTT) ([2]; day 26, pioglitazone 10 mg/kg/day, metformin 200 mg/kg/day, vs vehicle ZDF): 54%
- reduction of HOMA-IR [3, 7]: 67%
- reduction of HOMA-IR [3, 8]: 62%
- reduction of HOMA-IR [3, 9]: 54%
- plasma C-peptide levels [3, 10]: no effect
- plasma insulin levels [3, 10]: no effect
- increase of plasma HDL-cholesterol [4, 7]: 38%
- lowering of plasma free fatty acids levels [4, 7]: 35%
- decrease of plasma non HDL-cholesterol levels [4, 8]: 49%
- increase of plasma HDL-cholesterol [4, 8]: 17%
- lowering of plasma free fatty acids levels [4, 8]: 17%
- decrease of plasma non HDL-cholesterol levels [4, 9]: 47%
- increase of plasma HDL-cholesterol [4, 9]: 19%
- lowering of plasma free fatty acids levels [4, 9]: 30%
- decrease of HbA1c ([5]; 28 days, pioglitazone 10 mg/kg/day, metformin 200 mg/kg/day): 44%
- reduction of fructosamine levels ([5]; day 19, pioglitazone 10 mg/kg/day, metformin 200 mg/kg/day): 30%
- reduction of fructosamine levels ([5]; day 28, pioglitazone 10 mg/kg/day): 25%
